The test system of experiment [1] is Escherichia coli ATCC 25922. Briefly: ≥ marks a high value that may be exact or a test limit, other limits are often not marked, values filed in µg/mL are converted to µM.
Experiment [2] relates to Staphylococcus aureus ATCC 25923. The experiment is described as above.

≈ marks a conversion by molar mass, not a printed value. A value given as a limit tells only on which side of the number the result lay.

For orientation: MIC means the lowest concentration that inhibits growth of the organism.

For the molecule `CC[C@H](C)[C@H](NC(=O)[C@H](CCCN=C(N)N)NC(=O)[C@H](CCCCN)NC(=O)[C@H](CCSC)NC(=O)[C@H](CC(C)C)NC(=O)CN)C(=O)N[C@@H](CCCCN)C(=O)N[C@H](C(=O)N[C@@H](CCSC)C(=O)N[C@@H](CC(C)C)C(N)=O)[C@@H](C)O` [GLMKRIKTML], the minimum inhibitory concentration (MIC) in experiment [1] is > 200 µM. On the same count and under the same terms, under `CC(C)C[C@H](NC(=O)[C@H](Cc1ccccc1)NC(=O)[C@@H]1CCCN1C(=O)[C@H](Cc1c[nH]c2ccccc12)NC(=O)[C@H](Cc1c[nH]c2ccccc12)NC(=O)[C@H](Cc1ccc(O)cc1)NC(=O)[C@@H]1CCCN1C(=O)[C@H](Cc1ccccc1)NC(=O)[C@H](CCCN=C(N)N)NC(=O)[C@H](CCCN=C(N)N)NC(=O)[C@@H](N)C(C)C)C(=O)N[C@@H](CCCN=C(N)N)C(=O)N[C@@H](CCCN=C(N)N)C(N)=O` [VRRFPYWWPFLRR] stands 16 µM (≈ 30.1 µg/mL). Regarding `CC[C@H](C)[C@H](NC(=O)[C@H](CCC(=O)O)NC(=O)[C@H](C)NC(=O)[C@@H](NC(=O)[C@H](CCCCN)NC(=O)[C@H](CCCCN)NC(=O)CN)[C@@H](C)O)C(=O)N[C@@H](CCC(=O)O)C(=O)N[C@@H](CCCCN)C(=O)O` [GKKTAEIEK], the MIC in experiment [2] turned out to be 1250 µM (≈ 1250 µg/mL); in experiment [1], 2490 µM (≈ 2500 µg/mL). Turning to `CC[C@H](C)[C@H](NC(=O)[C@H](CCCN=C(N)N)NC(=O)[C@H](CCCCN)NC(=O)[C@H](CC(C)C)NC(=O)[C@H](CC(C)C)NC(=O)[C@@H](N)CCCCN)C(=O)N[C@@H](CCCCN)C(=O)N[C@@H](CCCCN)C(=O)N[C@@H](CC(C)C)C(=O)N[C@@H](CC(C)C)C(N)=O` [KLLKRIKKLL], the values for the MIC in experiment [2] and in experiment [1] were 22.4 µM (≈ 28 µg/mL) and 29.5 µM (≈ 37 µg/mL), respectively. The molecule `CC[C@H](C)[C@H](NC(=O)CN)C(=O)N[C@@H](CCSC)C(=O)N[C@@H](CC(=O)O)C(=O)N[C@H](C(=O)N[C@H](C(=O)N[C@@H](CCCCN)C(=O)N[C@@H](CC(N)=O)C(=O)N[C@@H](C)C(=O)N[C@@H](C)C(=O)N[C@@H](CCCCN)C(=O)N[C@@H](CC(=O)O)C(=O)N[C@@H](CC(C)C)C(=O)N[C@@H](C)C(=O)NCC(=O)N[C@@H](CCC(N)=O)C(=O)N[C@@H](CC(C)C)C(=O)N[C@@H](CC(C)C)C(=O)N[C@@H](CC(=O)O)C(=O)N[C@@H](CCCCN)C(=O)N[C@@H](CC(C)C)C(=O)N[C@@H](CCCCN)C(=O)N[C@H]1CSSC[C@@H](C(=O)O)NC(=O)CNC(=O)[C@H]([C@@H](C)O)NC(=O)[C@H]([C@@H](C)CC)NC(=O)[C@H](CCCN=C(N)N)NC1=O)C(C)C)[C@@H](C)O` [GIMDTVKNAAKDLAGQLLDKLKCRITGC] showed an MIC in experiment [1] of 3 µM (≈ 8.92 µg/mL). For `CSCC[C@H](NC(=O)[C@H](Cc1c[nH]c2ccccc12)NC(=O)[C@H](CC(C)C)NC(=O)[C@H](C)N)C(=O)N[C@H](C(=O)N[C@@H](CC(C)C)C(=O)N[C@@H](CC(C)C)C(=O)N[C@@H](CCCCN)C(=O)N[C@@H](CCCCN)C(=O)N[C@H](C(=O)N[C@@H](CC(C)C)C(=O)N[C@@H](CCCCN)C(=O)N[C@@H](C)C(N)=O)C(C)C)[C@@H](C)O` [ALWMTLLKKVLKA], the MIC in experiment [2] worked out at 6 µM (≈ 9.08 µg/mL); in experiment [1], 25 µM (≈ 37.9 µg/mL). For `CC(C)C[C@H](NC(=O)[C@H](CCC(N)=O)NC(=O)[C@H](CCCCN)NC(=O)[C@H](CCCN=C(N)N)NC(=O)[C@@H]1CCCN1C(=O)[C@H](C)N)C(=O)N[C@@H](CCCCN)C(=O)N[C@@H](Cc1c[nH]c2ccccc12)C(=O)O` [APRKQLKW], in experiment [1], the MIC turned out to be 7.8 µM (≈ 8 µg/mL). Consider `NC(=O)[C@H](Cc1c[nH]c2ccccc12)NC(=O)[C@H](CCCN=C(N)N)NC(=O)[C@H](CCCN=C(N)N)NC(=O)[C@H](CCCN=C(N)N)NC(=O)[C@H](Cc1c[nH]c2ccccc12)NC(=O)[C@@H](N)Cc1c[nH]c2ccccc12` [WWRRRW], for which the MIC in experiment [2] was 9.57 µM (≈ 9.99 µg/mL); in experiment [1], 23.9 µM (≈ 25 µg/mL). The corresponding values for `CC(C)C[C@H](NC(=O)[C@H](CC(C)C)NC(=O)[C@H](CC(C)C)NC(=O)[C@@H]1CCCN1C(=O)[C@H](CC(C)C)NC(=O)[C@@H](N)Cc1ccccc1)C(=O)N[C@@H](C)C(=O)NCC(=O)N[C@@H](CC(C)C)C(=O)N1CCC[C@H]1C(=O)N[C@@H](CCCCN)C(=O)N[C@@H](CC(C)C)C(=O)N[C@@H](CC(C)C)C(=O)N[C@H]1CSSC[C@@H](C(=O)O)NC(=O)[C@H](CCCCN)NC(=O)[C@H](CCCCN)NC(=O)[C@H](Cc2ccccc2)NC(=O)[C@H](Cc2ccccc2)NC(=O)[C@H](CC(C)C)NC1=O` [FLPLLLAGLPKLLCLFFKKC] are 15 µM (≈ 34.1 µg/mL) and 15 µM (≈ 34.1 µg/mL).

For `CC(C)[C@@H]1NC(=O)CNC(=O)[C@H](CCCN=C(N)N)NC(=O)[C@H](CCCN=C(N)N)NC(=O)[C@@H]2CSSC[C@H](NC1=O)C(=O)N[C@@H](CCCN=C(N)N)C(=O)N[C@H]1CSSC[C@H](NC(=O)[C@H](CCCN=C(N)N)NC(=O)[C@@H](NC(=O)[C@@H](NC(=O)CN)C(C)C)CSSC[C@@H](C(=O)N[C@@H](CCCN=C(N)N)C(=O)N[C@@H](CCCN=C(N)N)C(=O)O)NC(=O)[C@H](C(C)C)NC1=O)C(=O)N[C@@H](C(C)C)C(=O)N2` [GVCRCVCRRGVCRCVCRR], the MIC in experiment [2] is > 32 µM; in experiment [1], 32 µM (≈ 66.5 µg/mL). `CC[C@H](C)[C@H](NC(=O)[C@H](Cc1ccccc1)NC(=O)CN)C(=O)N[C@@H](CO)C(=O)N[C@H](C(=O)N[C@H](C(=O)N[C@@H](CCCCN)C(=O)N[C@@H](CC(N)=O)C(=O)N[C@@H](CC(C)C)C(=O)N[C@@H](C)C(=O)N[C@H](C(=O)N[C@@H](CC(N)=O)C(=O)N[C@H](C(=O)N[C@@H](C)C(=O)NCC(=O)N[C@H](C(=O)N[C@H](C(=O)N[C@H](C(=O)N[C@@H](CC(=O)O)C(=O)N[C@H](C(=O)N[C@H](C(=O)N[C@@H](CCCCN)C(=O)N[C@H]1CSSC[C@@H](C(=O)O)NC(=O)CNC(=O)CNC(=O)[C@H]([C@@H](C)O)NC(=O)[C@H](C(C)C)NC(=O)[C@H](CCCCN)NC1=O)[C@@H](C)CC)[C@@H](C)O)[C@@H](C)CC)C(C)C)[C@@H](C)O)C(C)C)[C@@H](C)O)C(C)C)[C@@H](C)O` [GFISTVKNLATNVAGTVIDTIKCKVTGGC] returned an MIC in experiment [1] of 110 µM (≈ 320 µg/mL). For the molecule `CC[C@H](C)[C@H](NC(=O)[C@H](CCCN=C(N)N)NC(=O)[C@H](CCCCN)NC(=O)[C@H](CC(C)C)NC(=O)[C@H](CC(C)C)NC(=O)CN)C(=O)N[C@@H](CCCCN)C(=O)N[C@@H](Cc1c[nH]c2ccccc12)C(=O)N[C@@H](CC(C)C)C(=O)N[C@@H](CC(C)C)C(N)=O` [GLLKRIKWLL], the MIC in experiment [2] was 3.23 µM (≈ 4 µg/mL); in experiment [1], 1.61 µM (≈ 2 µg/mL). As for `CC[C@H](C)[C@H](NC(=O)[C@H](CCCCN)NC(=O)[C@H](CC(C)C)NC(=O)[C@H](CC(C)C)NC(=O)CN)C(=O)N[C@H](C(=O)N[C@@H](CCCCN)C(=O)N[C@H](C(=O)N[C@@H](CC(C)C)C(=O)N[C@@H](CC(C)C)C(N)=O)[C@@H](C)O)[C@@H](C)CC` [GLLKIIKTLL], the MIC in experiment [2] and in experiment [1] was 1.8 µM (≈ 2 µg/mL) each time. Consider `CC[C@H](C)[C@H](NC(=O)[C@H](CCCN=C(N)N)NC(=O)[C@H](CCCCN)NC(=O)[C@H](CC(C)C)NC(=O)[C@H](CC(C)C)NC(=O)CN)C(=O)N[C@@H](CCCCN)C(=O)N[C@H](C(=O)N[C@@H](CC(C)C)C(=O)N[C@@H](CC(C)C)C(N)=O)C(C)C` [GLLKRIKVLL], for which the MIC in experiment [2] and in experiment [1] was 19.1 µM (≈ 22 µg/mL) each time. With `NC(=O)[C@H](CCCN=C(N)N)NC(=O)[C@H](Cc1c[nH]c2ccccc12)NC(=O)[C@H](Cc1c[nH]c2ccccc12)NC(=O)[C@@H](N)CCCN=C(N)N` [RWWR], the results for the MIC in experiment [2] and in experiment [1] were 142 µM (≈ 99.9 µg/mL) and > 285 µM, respectively.

These data come from DBAASP.
